Patent publication US7763624B2, “Substituted pyrazolo[3,4-d]pyrimidines as ACK-1 and LCK inhibitors” (Amgen Inc., priority 2005, dated 2010)
Like-named read-outs stand apart in the source and are kept apart here.

Key:
ACK1 = biological target: T1, ACK1 (Homo sapiens, UniProt Q07912); assay: ACK1 Enzymatic Assay (PGT/autophosphorylation ELISA); format: biochemical
T1 construct: a fusion of an N-terminal (His)6 Tag with amino acids 117 to 489 of ACK1; (His)6 (N); made in house; host or cells: baculovirus infected Hi-5 insect cells
Experimental: IC50 values of compounds of the invention may be assessed as follows. The ACK1 kinase assay utilizes a protein expressed in baculovirus infected Hi-5 cells (a fusion of an N-terminal (His)6 Tag with amino acids 117 to 489 of ACK1) purified by affinity chromatography on a Ni-NTA column. The substrate for the reaction is ACK1 itself (autophosphorylation) and poly-Glutamic acid-Tyrosine (PGT (4:1), Sigma catalog #PO275). The PGT is coated to Nunc 96 well plates at 80 μg/mL overnight at 4° C. The morning after coating, the plates are washed twice, and […] reaction buffer (10 mM Hepes, pH 7.6; 20 mM MgCl2; 75 mM NaCl, 0.125% TWEEN20 (polyoxyethylene sorbitan monolaurate); 1 mM DTT) with 5 μM ATP are added to each well. Test compounds are added in […] DMSO, and the reaction is started by addition of […] kinase in assay buffer. The reaction proceeds for 2 h at room temperature. Next, the plates are washed four times, and the level of tyrosine phosphorylation in a given well is quantified by standard ELISA assay utilizing a phosphotyrosine antibody (PY20, Pierce).

C8 cells = assay: ACK1 Cell Based Assay (survival under low serum, Cytotox One); conditions: read-out: ACK1 Cell-based IC50
Experimental: ACK1 Cell Based Assay The ACK1 cell based assay is designed to find inhibitors of ACK1 kinase activity which would be prime candidates for the development of anticancer drugs. […] After 20 to 24 h incubation at 37° C. and 5% CO2, cell viability is determined using the Cytotox One kit (Promega) according to the manufacturer's instructions.

LCK = biological target: T2, LCK (Homo sapiens, UniProt P06239); assay: LCK-Homogeneous Time Resolved Fluorescent (HTRF) Kinase Assay; format: biochemical
T2 construct: 15 μL of LCK KD GST (225-509) for a final volume of 40 μL; GST
Experimental: LCK-Homogeneous Time Resolved Fluorescent (HTRF) Kinase Assay
The LCK HTRF assay begins with LCK in the presence of ATP phosphorylating the biotinylated peptide Gastrin. The reaction incubates for 90 min. To quench the assay detection reagents are added which both stop the reaction by diluting out the enzyme and chelating the metals due to the presence of EDTA. Once the detection reagents are added the assay incubates for 30 min to allow for equilibration of the detection reagents.
Buffer conditions are as follows: 50 mM HEPES pH 7.5, 50 mM NaCl, 20 mM MgCl2, 5 mM MnCl2, 2 mM DTT, 0.05% BSA.
The assay is quenched and stopped with 160 μL of a detection reagent. Detection reagents are as follows: Buffer made of 50 mM Tris, pH 7.5, 100 mM NaCl, 3 mM EDTA, 0.05% BSA, 0.1% Tween20.
The assay plate is read in either a Discovery or a RubyStar.

[1] = ACK1-dependent C8 cells, 0.125% FCS, 20 to 24 h

T1 sequence (Q07912 117-489): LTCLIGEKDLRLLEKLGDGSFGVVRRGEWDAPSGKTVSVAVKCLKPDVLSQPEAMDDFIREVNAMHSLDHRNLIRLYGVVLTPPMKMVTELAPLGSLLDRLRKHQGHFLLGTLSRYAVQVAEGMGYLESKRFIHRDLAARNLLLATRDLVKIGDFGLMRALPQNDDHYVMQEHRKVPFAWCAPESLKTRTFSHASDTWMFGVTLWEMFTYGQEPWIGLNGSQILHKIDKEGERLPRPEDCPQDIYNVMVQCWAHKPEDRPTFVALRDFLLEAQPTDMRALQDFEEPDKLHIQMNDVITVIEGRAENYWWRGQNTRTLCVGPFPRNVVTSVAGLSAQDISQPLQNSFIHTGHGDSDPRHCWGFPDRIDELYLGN
T2 sequence (P06239 225-509): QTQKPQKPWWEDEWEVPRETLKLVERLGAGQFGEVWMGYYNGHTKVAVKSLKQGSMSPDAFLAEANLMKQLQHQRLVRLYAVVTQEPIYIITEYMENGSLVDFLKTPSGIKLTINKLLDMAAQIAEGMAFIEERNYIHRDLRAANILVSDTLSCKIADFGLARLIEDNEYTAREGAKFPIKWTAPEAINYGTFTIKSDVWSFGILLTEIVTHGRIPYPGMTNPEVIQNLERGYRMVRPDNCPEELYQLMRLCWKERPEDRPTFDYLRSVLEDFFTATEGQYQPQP

Row | Compound | Ki (ACK1) [µM] | IC50 (C8 cells; [1]) [µM] | Ki (LCK) [µM] | IC50 (C8 cells) [µM]
1 | COC(C)(C)CCn1nc(Nc2c(C)cccc2C)c2cnc(Nc3ccc(N4CCN(C)CC4)cc3)nc21 [Compound 55, N^3-(2,6-Dimethyl-phenyl)-1-(3-methoxy-3-methyl-butyl)-N-6-[4-(methylpiperazin-1-yl)phenyl]-1H-pyrazolo[3,4-d]pyrimidine-3,6-diamine] | < 0.01 | 0.01 to 0.1 | < 0.01 | 
2 | COC(C)(C)CCn1nc(Nc2c(C)cccc2C)c2cnc(Nc3ccc(OCCCN4CCCCC4)c(F)c3)nc21 [Compound 57] | 0.01 to 0.1 | 0.01 to 0.1 | 0.01 to 0.1 | 
3 | COC(C)(C)CCn1nc(Nc2c(C)cccc2C)c2ccc(Nc3ccccc3)cc21 [Compound 59] | < 0.01 | 0.01 to 0.1 | < 0.01 | 
4 | COC(C)(C)CCn1nc(Nc2c(C)cccc2C)c2ccc(Nc3ccc(N4CC(C)NC(C)C4)cc3)cc21 (stereo not drawn) [Compound 60, N^3-(2,6-Dimethylphenyl)-1-N^6-(4-(3,5-dimethylpiperazin-1-yl)phenyl)-1-(3-methoxy-3-methylbutyl)-1H-indazole-3,6-diamine] | < 0.01 | 0.01 to 0.1 | < 0.01 | 
5 | Cc1cccc(C)c1Nc1nn(CC2CCOCC2)c2nc(Nc3ccc(N4CCNCC4)cc3)ncc12 [Compound 61] | < 0.01 | < 0.01 | < 0.01 | 
6 | Cc1cccc(C)c1Nc1nn(CC2CCOCC2)c2nc(Nc3ccc(OCCCN4CCCCC4)c(F)c3)ncc12 [Compound 62] | < 0.01 | 0.01 to 0.1 | < 0.01 | 
7 | COC[C@H]1CCCN1CCCn1nc(Nc2c(C)cccc2C)c2ccc(Nc3ccc(N4CCNCC4)cc3)cc21 [Compound 67, (R)—N^3-(2,6-Dimethylphenyl)-1-(3-(2-(methoxymethyl)pyrrolidin-1-yl)propyl)-N^6-(4-piperazin-1-yl)phenyl-1H-indazole-3,6-diamine] | < 0.01 | 0.01 to 0.1 | < 0.01 | 
8 | COC(C)(C)CCn1nc(Nc2ccccc2)c2cnc(Nc3ccccc3)nc21 [Compound 74, 1-(3-Methoxy-3-methyl-butyl)-N^3, N^6-diphenyl-1H-pyrazolo[3,4-d]pyrimidine-3,6-diamine] | > 0.1 |  | > 0.1 | > 0.1
9 | COC(C)(C)CCn1nc(Nc2ccccc2)c2cnc(Nc3ccc(N4CCN(C)CC4)cc3)nc21 [Compound 75] | > 0.1 |  | 0.01 to 0.1 | > 0.1
10 | COC(C)(C)CCn1nc(Nc2c(C)cc(C)cc2C)c2cnc(Nc3ccccc3)nc21 [Compound 76, 1-(3-Methoxy-3-methyl-butyl)-N^6-phenyl-N^3-(2,4,6-trimethyl-phenyl)-1H-pyrazolo[3,4-d]pyrimidine-3,6-diamine] | > 0.1 |  | < 0.01 | > 0.1
11 | COC(C)(C)CCn1nc(Nc2c(C)cc(C)cc2C)c2cnc(Nc3ccc(N4CCN(C)CC4)cc3)nc21 [Compound 77] | 0.01 to 0.1 |  | < 0.01 | 0.01 to 0.1
12 | COC(C)(C)CCn1nc(Nc2c(C)cc(F)cc2C)c2cnc(Nc3ccccc3)nc21 [Compound 78, N^3-(4-Fluoro-2,6-dimethyl-phenyl)-1-(3-methoxy-3-methyl-butyl)-N^6-phenyl-1H-pyrazolo[3,4-d]pyrimidine-3,6-diamine] | 0.01 to 0.1 |  | < 0.01 | > 0.1
13 | COC(C)(C)CCn1nc(Nc2c(C)cc(F)cc2C)c2cnc(Nc3ccc(N4CCN(C)CC4)cc3)nc21 [Compound 79, N^3-(4-Fluoro-2,6-dimethyl-phenyl)-1-(3-methoxy-3-methyl-butyl)-N^6-[4-(4-methyl-piperazin-1-yl)-phenyl]-1H-pyrazolo[3,4-d]pyrimidine-3,6-diamine] | 0.01 to 0.1 | 0.01 to 0.1 | < 0.01 | 
14 | COC(C)(C)CCn1nc(Nc2c(Cl)cccc2Cl)c2ccc(Nc3ccc(N4CCN(C(=O)OCC5c6ccccc6-c6ccccc65)CC4)cc3)cc21 [Compound 81, (9H-Fluoren-9-yl)methyl 4-(4-(3-(2,6-dichlorophenylamino)-1-(3-methoxy-3-methyl-butyl)-1H-indazol-6-ylamino)phenyl)piperazine-1-carboxylate] | 0.01 to 0.1 |  | < 0.01 | > 0.1
15 | COC(C)(C)CCn1nc(Nc2c(Cl)cccc2Cl)c2cnc(Nc3ccc(OCCN4CCCC4)c(F)c3)nc21 [Compound 82, N^3-(2,6-Dichlorophenyl)-N^6-(3-fluoro-4-(2-(pyrrolidin-1-yl)ethoxy)phenyl)-1-(3-methoxy-3-methylbutyl)-1H-pyrazolo[3,4-d]pyrimidine-3,6-diamine] | < 0.01 |  | < 0.01 | 0.01 to 0.1
16 | COC(C)(C)CCn1nc(Nc2c(Cl)cccc2Cl)c2ccc(Nc3ccc(N4CCNCC4)cc3)cc21 [Compound 84] | 0.01 to 0.1 | 0.01 to 0.1 | < 0.01 | 
17 | C=CCCn1nc(Nc2c(Cl)cccc2Cl)c2cnc(Nc3ccccc3)nc21 [Compound 87, 1-(But-3-enyl)-N^3-(2,6-dichlorophenyl)-N^6-phenyl-1H-pyrazolo[3,4-d]pyrimidine-3,6-diamine] | 0.01 to 0.1 | > 0.1 | < 0.01 | 
18 | OCC(O)CCn1nc(Nc2c(Cl)cccc2Cl)c2cnc(Nc3ccccc3)nc21 (stereo not drawn) [Compound 88, 4-(3-(2,6-dichlorophenylamino)-6-(phenylamino)-1H-pyrazolo[3,4-d]pyrimidin-1-yl)butane-1,2-diol] | 0.01 to 0.1 | 0.01 to 0.1 | < 0.01 | 
19 | CN(C)CCCn1nc(Nc2c(Cl)cccc2Cl)c2cnc(Nc3ccccc3)nc21 [Compound 89, N^3-(2,6-Dichlorophenyl)-1-(3-(dimethylamino)propyl)-N^6-phenyl-1H-pyrazolo[3,4-d]pyrimidine-3,6-diamine] | < 0.01 | 0.01 to 0.1 | < 0.01 | 
20 | Clc1cccc(Cl)c1Nc1nn(CCC2CCNCC2)c2nc(Nc3ccccc3)ncc12 [Compound 94, N^3-(2,6-dichlorophenyl)-N^6-phenyl-1-(2-(piperidin-4-yl)ethyl)-1H-pyrazolo[3,4-d]pyrimidine-3,6-diamine] | 0.01 to 0.1 | > 0.1 | < 0.01 | 
21 | (R)—N^3-(2,6-Dimethylphenyl)-1-(3-(2-(methoxymethyl)pyrrolidin-1-yl)propyl)-1H-indazole-3,6-diamine [Compound 68] | > 0.1 | > 0.1 | 0.01 to 0.1 | 
22 | (R)—N^3-(2,6-Dimethylphenyl)-1-(3-(2-(methoxymethyl)pyrrolidin-1-yl)propyl)-N^6-phenyl-1H-indazole-3,6-diamine [Compound 66] | > 0.1 | > 0.1 | < 0.01 | 
23 | (R)—N^3-(2,6-Dimethylphenyl)-N^6-(4-fluorophenyl)-1-(3-(2-(methoxymethyl)pyrrolidin-1-yl)propyl)-1H-indazole-3,6-diamine [Compound 65] | > 0.1 | > 0.1 | < 0.01 | 
24 | Ethyl-2-(3-(2,6-dimethylphenylamino)-6-(phenylamino)-1H-indazole-1-yl)acetate [Compound 64] | 0.01 to 0.1 | > 0.1 | < 0.01 | 
25 | N^3-(2,6-Dimethylphenyl)-1-(3-methoxy-3-methylbutyl)-1H-indazole-3,6-diamine [Compound 58] | > 0.1 | > 0.1 | < 0.01 | 
26 | N^3-(2,6-Dimethylphenyl)-N^6-phenyl-1-((tetrahydro-2H-pyran-4-yl)methyl)-1H-indazole-3,6-diamine [Compound 63] | 0.01 to 0.1 | > 0.1 | < 0.01 | 
27 | N^3-(2,6-dichlorophenyl)-1-(3-methoxy-3-methylbutyl)-N^6-[4-(4-methyl-piperazin-1-yl)-phenyl]-1H-indazole-3,6-diamine [Compound 80] | < 0.01 | 0.01 to 0.1 | < 0.01 | 
28 | N^3-(2,6-dimethylphenyl)-1-(2-(4-methylpiperazin-1-yl)ethyl)-N^6-phenyl-1H-indazole-3,6-diamine [Compound 72] | 0.01 to 0.1 | > 0.1 | < 0.01 | 
